Several values for one entry are separate records, joined by “and”; a condition that tells them apart may be missing. Identical values can stand only once. Like-named read-outs stand apart in the source and are kept apart here.

By inhibition is commonly meant the percentage by which the read-out fell short of the control.

Experiment [1] deals with Aspergillus niger. The experiment can be described thus: Agar dilution plate. It counts as cell-based. To be noted: An; 100 ppm, 72 hours at 23° C. The protocol: (§1) Test compounds were incorporated in a Sabouraud's dextrose agar in an amount sufficient to provide the active ingredient in a concentration of about 100 ppm. A twenty-ml. sample of the agar mixture is placed in a petri dish and permitted to solidify. An agar sample is inoculated with the test organism set forth below and then covered and incubated for a period of about 72 hours at 23° C. After incubation, growth observations are made. The test results are recorded and the test is repeated twice for the purpose of comparison.
(§2) The data obtained with a variety of test organisms is shown in the table below, and ratings are shown as 0 or 5. O indicates no control, 5 indicates 100% effectiveness of the test compound against the specified organism.
Background: In agar dilution the substance is mixed into plates at graded concentrations.

In experiment [2] the test system is Fusarium lycopersici. The experiment in a line: Agar dilution plate. It counts as cell-based. To be noted: Fl; 100 ppm, 72 hours at 23° C. The protocol:
as §1, §2

Experiment [3] relates to Monilinia fructicola. The experiment in a line: Agar dilution plate. It counts as cell-based. To be noted: Mf; 100 ppm, 72 hours at 23° C. As for the experimental part:
as §1, §2

Experiment [4] deals with Pythium de Baryanum. The experiment can be described thus: Agar dilution plate. It counts as cell-based. To be noted: Pd; 100 ppm, 72 hours at 23° C. As for the experimental part: as §1, §2
In experiment [5] the test system is Rhizoctonia solani. The experiment can be described thus: Agar dilution plate. It counts as cell-based. To be noted: Rs; 100 ppm, 72 hours at 23° C. As for the experimental part: as §1, §2
Experiment [6] has as its system Stemphylium sarcinaeforme. The experiment can be described thus: Agar dilution plate. It counts as cell-based. To be noted: Ss; 100 ppm, 72 hours at 23° C. The protocol:
as §1, §2
Ss= Stemphylium sarcinaeforme

Experiment [7] concerns Pseudomonas solaracaerum. It counts as cell-based. To be noted: 100 ppm, 72 hours at 23° C.
Experiment [8] deals with Collectotrichum lagenarium. The experiment in a line: Agar dilution plate. It counts as cell-based. To be noted: Cl; 100 ppm, 72 hours at 23° C. The protocol:
as §1, §2
Cl= Collectotrichum lagenarium

Experiment [9] has as its system Verticillium albo-atrum. The experiment can be described thus: Agar dilution plate. It counts as cell-based. To be noted: Va; 100 ppm, 72 hours at 23° C. As for the experimental part: as §1, §2
Va= Verticillium albo-atrum

Experiment [10] has as its system Phytophthora infestans. It is filed as in vivo. Further details: scale not given here. To be noted: Tomato Late Blight, five days.
The test system of experiment [11] is Piricularia oryzae. It counts as in vivo. Also on record: scale not given here. To be noted: Rice Blast, five days.
In experiment [12] the test system is Venturia inaequalis. To be noted: in vivo. Note: key: 5: clean, no disease; 4: trace of disease; 3: slight disease; 2: moderate disease; 1: severe disease; 0: like controls.
Experiment [13] relates to Aspergillus niger. The experiment in a line: Spore germination inhibition. It counts as cell-based. To be noted: 24 hours. From the text:
(§3) The test procedure involves the preparation of a 100, 10 or 1 ppm. suspension of test compound in water. The solutions are placed in one dram "opticlear" vials and separately inoculated with one drop of a spore suspension prepared from seven-day cultures of Aspergillus niger and 14-day old cultures of Monilinia fructicola and Stemphylium sarcinaeforme,all grown on potato-dextrose agar. The vials containing the separately inoculated solutions of test compounds are then capped and placed on a rotating tumbler for 24 hours to assure contact of the organism with the test compound. After 24 hours, the vials are removed and examined for inhibition of […].

The test system of experiment [14] is Monilinia fructicola. The experiment can be described thus: Spore germination inhibition. It is filed as cell-based. To be noted: for inhibition at 1 ppm / inhibition at 10 ppm: 24 hours; for inhibition at 100 ppm: 24 h, read-out: % Inhibition of Spore Germination.
Excerpt: as §3

In experiment [15] the test system is Stemphylium sarcinaeforme. The experiment can be described thus: Spore germination inhibition. It is filed as cell-based. To be noted: Stemphylium sarciniforme; for inhibition at 100 ppm: 24 h, read-out: % Inhibition of Spore Germination; for inhibition at 1 ppm / inhibition at 10 ppm: 24 hours.
Excerpt: as §3

Turning to `CCN(CC)C(=S)SCC(CSC(=S)N(CC)CC)[N+](=O)[O-]` [Example 2, 2-Nitrotrimethylene Diethyldithiocarbamate], the “Agar Dilution Plate rating” value in experiment [1], in experiment [2], in experiment [3], in [4], in experiment [5] and in experiment [6] was 0 in each case. For the same compound, the “Agar Dilution Plate rating” value in experiment [7] is 0; in experiment [8], 5 (100% effectiveness of the test compound against the specified organism); in [9] it was 0. In addition, the disease control index in experiment [10] (150 ppm) is on record as 4; in [10] (300 ppm), 4; in [10] (600 ppm), 5; in [10] (1200 ppm) it was 5; in experiment [11] (150 ppm) it was 4; in experiment [11] (300 ppm), 4. Besides, the disease control index in experiment [11] (600 ppm), in experiment [11] (1200 ppm) and in experiment [12] was 5 throughout.

Turning to `CN(C)CC1(CSC(=S)N(C)C)SC(=S)NC1=O` (centres unmarked) [Example 12, Dimethyldithiocarbamic Acid S-Ester with 5-(Dimethylaminomethy)-5-(mercaptomethyl)rhodanine], the disease control index in experiment [10] (150 ppm), in [10] (300 ppm), in experiment [11] (300 ppm) and in [12] was 5 in each case.

As for `CCN(CC)C(=S)SC(C[N+](=O)[O-])c1ccccc1` (stereo not drawn) [Example 19, α-(Nitromethyl)benzyl Diethyldithiocarbamate], the “Agar Dilution Plate rating” value in [1] is 0; in [2] it was 0; in experiment [3], 5 (100% effectiveness of the test compound against the specified organism); in experiment [4], 0; in experiment [5], 0; in [6], 0. Moreover, the “Agar Dilution Plate rating” value in [7], in experiment [8] and in [9] was 0 throughout. In addition, the disease control index in [10] (150 ppm), in [10] (300 ppm), in [10] (600 ppm), in [10] (1200 ppm), in experiment [11] (150 ppm) and in experiment [11] (300 ppm) was 3 throughout. Besides, the disease control index in experiment [11] (600 ppm) was 5; in [11] (1200 ppm), 5; in experiment [12] it was 5 and 0.

Take `CN(C)C(=S)SC(C[N+](=O)[O-])c1ccc(C(C[N+](=O)[O-])SC(=S)N(C)C)cc1` (stereo not drawn) [Example 20, α,α'-Bis(nitromethyl)-p-phenylenedimethylene Dimethyldithiocarbamate]: the disease control index in experiment [10] (150 ppm) came out at 3; in experiment [10] (300 ppm), 3; in experiment [10] (600 ppm), 4; in [10] (1200 ppm), 5.

With `COc1cccc(C(C[N+](=O)[O-])SC(=S)N(C)C)c1OC(C)=O` (stereo not drawn) [Example 21, 2-Acetoxy-3-methoxy-α-(nitromethyl)benzyl Dimethyldithiocarbamate], the disease control index is given as 5 in experiment [10] (at 500 ppm), 3 in experiment [11] (at 75 ppm), 4 in [11] (at 500 ppm) and 4 in [12].

As for `CN(C)C(=S)SC(C[N+](=O)[O-])c1cc([N+](=O)[O-])ccc1Cl` (stereo not drawn) [Example 23, 2-Chloro-5-nitro-α-(nitromethyl)benzyl Dimethyldithiocarbamate], the disease control index was 5 in [10] (at 100 ppm); 5 in [10] (at 500 ppm); 3 in [11] (at 75 ppm); 4 in experiment [11] (at 500 ppm); 4 in [12].

As for `COc1ccc(C(C[N+](=O)[O-])SC(=S)N(C)C)cc1` (stereo not drawn) [Example 29, p-Methoxy-α-(nitromethyl)benzyl Dimethyldithiocarbamate], the inhibition at 1 ppm in experiment [13], in experiment [14] and in [15] was 0% throughout. Besides, the figures for the inhibition at 10 ppm in experiment [13], in [14] and in experiment [15] were 0%, 100% and 100%, respectively. Moreover, the inhibition at 100 ppm in experiment [13], in experiment [14] and in experiment [15] was 100% throughout. Further, the disease control index in experiment [10] (150 ppm) was found to be 5; in experiment [10] (300 ppm) it was 5; in experiment [10] (600 ppm), 5; in experiment [10] (1200 ppm), 5; in experiment [11] (150 ppm) it was 4; in [11] (300 ppm), 5. Moreover, the disease control index in [11] (600 ppm), in experiment [11] (1200 ppm) and in experiment [12] was 5 in each case.

On to `CN(C)C(=S)SC(C[N+](=O)[O-])c1ccco1` (stereo not drawn) [Example 32, α-(Nitromethyl)furfuryl Dimethyldithiocarbamate], for which the disease control index came out at 4 in experiment [10] (150 ppm); 4 in [10] (300 ppm); 5 in experiment [10] (600 ppm); 5 in [10] (1200 ppm); 0 in experiment [11] (150 ppm); 0 in experiment [11] (300 ppm). For the same compound, the disease control index was 5 in [11] (600 ppm); 5 in [11] (1200 ppm); 5 and 0 in experiment [12].

In the case of `CN(C)C(=S)SC(C[N+](=O)[O-])c1ccc(Cl)s1` (stereo not drawn) [Example 34, 5-Chloro-α-(nitromethyl)-2-thenyl Dimethyldithiocarbamate], the inhibition at 1 ppm in experiment [13], in [14] and in experiment [15] was 0% throughout. The inhibition at 10 ppm in [13], in [14] and in [15] was 100% in each case. The inhibition at 100 ppm in [13], in experiment [14] and in [15] was 100% in each case. Further, the “Agar Dilution Plate rating” value is 0 in [1]; 0 in [2]; 0 in experiment [3]; 0 in experiment [4]; 5 (100% effectiveness of the test compound against the specified organism) in experiment [5]; 0 in [6]. The entries for the “Agar Dilution Plate rating” value in experiment [7], in experiment [8] and in experiment [9] were 0, 5 (100% effectiveness of the test compound against the specified organism) and 0, respectively. Moreover, the figures for the disease control index in experiment [10] (at 500 ppm), in experiment [11] (at 75 ppm) and in experiment [11] (at 500 ppm) were 3, 1 and 3, respectively.

Values taken from patent publication US4148795A, “Dithiocarbamate ester bactericides and fungicides” (American Cyanamid Company, priority 1976, dated 1979).
